From patent US5462933A, “Modified bile acid conjugates, and their use as pharmaceuticals” (Hoechst Aktiengesellschaft, priority 1989, dated 1995) come the findings set out here.

pIC50: −log10 of the molar value. Counter-ions that a name gives are not always drawn. Like-named read-outs stand apart in the source and are kept apart here.

The assay addresses T1, Na+-dependent bile acid transport system (Oryctolagus cuniculus, UniProt Q28727).
T1 construct: brush-border membrane vesicles from the ileum of rabbits; from tissue; host or cells: terminal ileum of male New Zealand rabbits, brush-border membrane vesicles
T1 sequence (Q28727 1-347): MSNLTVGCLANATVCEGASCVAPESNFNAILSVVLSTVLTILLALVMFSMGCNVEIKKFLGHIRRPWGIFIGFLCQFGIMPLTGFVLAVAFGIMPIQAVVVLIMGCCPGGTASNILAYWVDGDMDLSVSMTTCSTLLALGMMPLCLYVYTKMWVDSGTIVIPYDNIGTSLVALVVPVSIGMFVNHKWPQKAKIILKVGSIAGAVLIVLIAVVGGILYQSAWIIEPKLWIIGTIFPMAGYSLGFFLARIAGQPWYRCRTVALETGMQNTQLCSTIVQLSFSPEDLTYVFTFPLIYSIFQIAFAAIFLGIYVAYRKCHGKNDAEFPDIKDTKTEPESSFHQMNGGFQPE
The assay can be described thus: Inhibition of Na+-dependent [3H]taurocholate absorption into brush-border membrane vesicles of the ileum. It is filed as biochemical, rabbit. Here is the method:
The preparation of brush-border membrane vesicles from the intestinal cells of the small intestine was carried out using the so-called Mg^2+ precipitation method. Male New Zealand rabbits (2-2.5 kg body weight) were sacrificed by intravenous injection of 0.5 ml of T-61^R. The small intestine was removed and rinsed with ice-cold physiological saline solution. The terminal 3/10 of the small intestine (measured in the oral-rectal direction, i.e. the terminal ileum, which contains the active Na^+ -dependent bile acid transport system) were used for preparation of the brush-border membrane vesicles. The intestines were frozen at -80° C. under nitrogen in plastic bags. The frozen intestines were thawed in a water bath at 30° C. in order to prepare the membrane vesicles. The mucosa was scraped off and suspended in 60 ml of ice-cold 12 mM trys/HCl buffer (pH 7.1)/300 mM mannitol, 5 mM EGTA/10 mg/l of phenylmethylsulfonyl fluoride/1 mg/l of soybean trypsin inhibitor (32 U/mg)/0.5 mg/l of bovine lung trypsin inhibitor (193 U/mg)/5 mg/l of bacitracin. After diluting to 300 ml with ice-cold distilled water, the suspension was homogenized with ice-cooling for 3 minutes at 75% of maximum power using an Ultraturrax (18 rod, IKA Werk Staufen, Federal Republic of Germany). After addition of 3 ml of 1M MgCl2 solution (final concentration 10 mM), the homogenate was allowed to stand at 0° C. for exactly 1 minute. As a result of addition of Mg^2+, the cell membranes aggregate and precipitate with the exception of the brush-border membranes. After centrifugation at 3,000×g (5,000 rpm, SS-34 rotor) for 15 minutes, the precipitate is discarded and the supernatant which contains the brush-border membranes is centrifuged at 26,700×g (15,000 rpm, SS-34 rotor) for 30 minutes. The supernatant was discarded, and the precipitate was rehomogenized in 60 ml of 12 mM tris/HCl buffer (pH 7.1)/60 mM mannitol, 5 mM EGTA using a Potter Elvejhem homogenizer (Braun Melsungen, 900 rpm, 10 strokes). After addition of 0.1 ml of 1M MgCl2 solution and an incubation time of 15 minutes at 0° C., the mixture was again centrifuged at 3,000×g for 15 minutes. The supernatant was then again centrifuged at […] (15,000 rpm, SS-34 rotor) for 30 minutes. The precipitate was taken up in 30 ml of 10 mM tris/hepes buffer (pH 7.4)/300 mM mannitol and homogeneously resuspended by 20 strokes in a Potter Elvejhem homogenizer at 1,000 rpm. After centrifugation at 48,000×g (20,000 rpm, SS-34 rotor) for 30 minutes, the precipitate was taken up in 0.5 to 2 ml of tris/hepes buffer (pH 7.4)/280 mM mannitol (final concentration 20 mg/ml) and resuspended with the aid of a tuberculin syringe using a 27 gauge needle. The vesicles were either used immediately after preparation for transport investigations or stored at -196° C. in liquid nitrogen in 4 mg portions.
The absorption of substrates into brush-border membrane vesicles was determined by means of the so-called membrane filtration technique. 10 μl of the vesicle suspension (100 μg of protein) were pipetted on the wall of a polystyrene incubation tube (11×70 mm) as a drop which contained the incubation medium together with the corresponding ligands (90 μl ). […] The incubation medium was filtered through a polyvinylidene fluoride membrane filter (SYHV LO 4NS, 0.45 μm, 4 mm .phi., Millipore, Eschborn, Federal Republic of Germany). The transport measurement was begun by mixing the vesicles with the incubation medium. […] After the desired incubation time (customarily 1 min), the transport was stopped by addition of 1 ml of ice-cold stop solution (10 mM tris/hepes, (pH 7.4)/150 mM KCl). The resulting mixture was immediately filtered off with suction in a vacuum of 25 to 35 mbar through a membrane filter made of cellulose nitrate (ME 25, 0.45 μm, 25 mm diameter, Schleicher & Schuell, Dassell, Federal Republic of Germany). The filter was subsequently washed with 5 ml of ice-cold Stop solution.

Setting [1] is: Na+-dependent transport component, 50 μM taurocholate.

The term pIC50 denotes the IC50 on a negative log10 scale, so that one unit is a factor of ten. Take `C[C@H](CCC(=O)NCCS(=O)(=O)O)[C@H]1CC[C@H]2[C@@H]3[C@H](O)C[C@@H]4C[C@H](O)CC[C@]4(C)[C@H]3CC[C@]12C` [Taurochenodeoxycholate, reference compound]: the pIC50 (read-out: IC50) is 4.64.

Broadly, the IC25 is the point of the concentration-response curve where the effect stands at 25%. Lower therefore signals greater potency. For orientation: IC75 means the point of the concentration-response curve where the effect stands at 75%. A low value points to greater potency. For `CC(C)c1nc(-c2ccccc2)cc(-c2ccc(F)cc2)c1/C=C/[C@@H]1C[C@@H](O)CC(=O)O1` [Example 125, reference compound], the 25% effect level (IC25) was put at 12 µM and the IC75 amounted to 104 µM. The pIC50 (read-out: IC50) was 4.34.

`C[C@H](CCC(=O)NCC(=O)O)[C@H]1CC[C@H]2[C@@H]3[C@H](O)C[C@@H]4C[C@@H](OCCNC(=O)CCCc5ccc(N(CCCl)CCCl)cc5)CC[C@]4(C)[C@H]3C[C@H](O)[C@]12C` [Example 68] had a pIC50 of 4.05. Also, under setting [1], the IC25 is 60 µM and the IC75 came out at 250 µM.

`CC(C)c1nc(-c2ccccc2)cc(-c2ccc(F)cc2)c1/C=C/[C@@H](O)C[C@@H](O)CC(=O)NCCO[C@H]1CC[C@@]2(C)[C@@H](C1)C[C@@H](O)[C@@H]1[C@@H]2C[C@H](O)[C@]2(C)[C@@H]([C@H](C)CCC(=O)NCCS(=O)(=O)O)CC[C@@H]12` [Example 115 (Na salt)] returned a 25% effect concentration (IC25) of 12 µM and an IC75 of 44 µM. Also, for the setting “read-out: IC50”, the negative-log IC50 (pIC50) is 4.55.

`CC(C)c1cc(-c2ccc(F)cc2)c(OC[C@@H](O)C[C@@H](O)CC(=O)NCCO[C@H]2CC[C@@]3(C)[C@@H](C2)C[C@@H](O)[C@@H]2[C@@H]3C[C@H](O)[C@]3(C)[C@@H]([C@H](C)CCC(=O)NCCS(=O)(=O)O)CC[C@@H]23)c(C(C)C)c1` [Example 111] displayed a 25% effect concentration (IC25) of 10 µM and an IC75 of 39 µM. In addition, the pIC50 (read-out: IC50) is 4.62.

Take `COC(=O)CC[C@@H](C)[C@H]1CC[C@H]2[C@@H]3[C@H](O)C[C@@H]4C[C@@H](OCCNC(=O)[C@@H](C)NC(=O)[C@@H](C)N)CC[C@]4(C)[C@H]3C[C@H](O)[C@]12C` [Example 120, H-D-Ala-D-Ala-NH--(CH2)2 --GS--OCH3]: the IC25 was determined as 38 µM and the IC75 came to 178 µM. In addition, the pIC50 (read-out: IC50) is 4.06.

Consider `CC(C)c1nc(-c2ccccc2)cc(-c2ccc(F)cc2)c1/C=C/[C@@H](O)C[C@@H](O)CC(=O)NCCCO[C@H]1CC[C@@]2(C)[C@@H](C1)C[C@@H](O)[C@@H]1[C@@H]2C[C@H](O)[C@]2(C)[C@@H]([C@H](C)CCC(=O)O)CC[C@@H]12` [Example 86], for which the IC25 is 14 µM and the 75% effect level (IC75) was put at 87 µM. For the same compound, the pIC50 (read-out: IC50) is 4.21.

On to `C[C@H](CCC(=O)NCCS(=O)(=O)O)[C@H]1CC[C@H]2[C@@H]3CC[C@@H]4C[C@H](OS(=O)(=O)O)CC[C@]4(C)[C@H]3CC[C@]12C` [Taurolithocholate-3-sulfate, reference compound], for which the pIC50 (read-out: IC50) is 3.61.

In turn, `C[C@H](CCC(=O)O)[C@H]1CC[C@H]2[C@@H]3[C@H](O)C[C@@H]4C[C@@H](OCCNC(=O)[C@@H](C)NC(=O)[C@@H](C)NC(=O)OCc5ccccc5)CC[C@]4(C)[C@H]3C[C@H](O)[C@]12C` [Example 122, Z-D-Ala-D-Ala-NH--(CH2)2 --GS--OH] had an IC25 of 19 µM and an IC75 of 237 µM. Further, the pIC50 (read-out: IC50) is 3.97.

`CC(C)c1nc(-c2ccccc2)cc(-c2ccc(F)cc2)c1/C=C/[C@@H](O)C[C@@H](O)CC(=O)NCCCO[C@@H]1CC[C@@]2(C)[C@@H](C1)C[C@@H](O)[C@@H]1[C@@H]2C[C@H](O)[C@]2(C)[C@@H]([C@H](C)CCC(=O)O)CC[C@@H]12` [Example 87] gave an IC25 of 16 µM and an IC75 of 70 µM. For the same compound, the pIC50 (read-out: IC50) was 4.25.

`CC(C)c1cc(Sc2ccc(F)cc2)cc(-c2ccc(F)cc2)c1OC[C@@H](O)C[C@@H](O)CC(=O)NCCO[C@H]1CC[C@@]2(C)[C@@H](C1)C[C@@H](O)[C@@H]1[C@@H]2C[C@H](O)[C@]2(C)[C@@H]([C@H](C)CCC(=O)O)CC[C@@H]12` [Example 93] yielded an IC25 of 3.2 µM and a concentration for an effect of 75% (IC75) of 23 µM. Besides, under “read-out: IC50”, the pIC50 was 5.10.

Take `C[C@H](CCC(=O)NCCS(=O)(=O)O)[C@H]1CC[C@H]2[C@@H]3CC[C@@H]4C[C@H](O)CC[C@]4(C)[C@H]3CC[C@]12C` [Taurolithocholate, reference compound]: the pIC50 (read-out: IC50) was 4.92.

Turning to `CC(C)c1nc(-c2ccccc2)cc(-c2ccc(F)cc2)c1/C=C/[C@@H](O)C[C@@H](O)CC(=O)NCCO[C@H]1CC[C@@]2(C)[C@@H](C1)C[C@@H](O)[C@@H]1[C@@H]2C[C@H](O)[C@]2(C)[C@@H]([C@H](C)CCC(=O)O)CC[C@@H]12` [Example 85], it took 18 µM to reach the 25% level (IC25) and the IC75 is 64 µM. Moreover, under “read-out: IC50”, the negative-log IC50 (pIC50) is 4.37.

`C[C@H](CCC(=O)O)[C@H]1CC[C@H]2[C@@H]3[C@H](O)C[C@@H]4C[C@@H](OCCNC(=O)CCCc5ccc(N(CCCl)CCCl)cc5)CC[C@]4(C)[C@H]3C[C@H](O)[C@]12C` [Example 66] showed a negative logarithm of the IC50 (pIC50) of 4.06. In addition, under setting [1], the IC25 is on record as 60 µM and the 75% effect concentration (IC75) is reported as 148 µM.

For `COC(=O)CC[C@@H](C)[C@H]1CC[C@H]2[C@@H]3[C@H](O)C[C@@H]4C[C@@H](OCCNC(=O)[C@@H](C)NC(=O)[C@@H](C)NC(=O)OCc5ccccc5)CC[C@]4(C)[C@H]3C[C@H](O)[C@]12C` [Example 119, Z-D-Ala-D-Ala-NH--(CH2)2 --GS--OCH3], the IC25 was 48 µM. The pIC50 (read-out: IC50) is 3.87.

As to `Cc1cc(C(=C(/C=C/[C@@H](O)C[C@@H](O)CC(=O)NCCO[C@H]2CC[C@@]3(C)[C@@H](C2)C[C@@H](O)[C@@H]2[C@@H]3C[C@H](O)[C@]3(C)[C@@H]([C@H](C)CCC(=O)O)CC[C@@H]23)C(C)C)c2ccc(F)c(C)c2)ccc1F` [Example 90], the IC25 came to 3.8 µM and the IC75 was determined as 27 µM. Further, for the setting “read-out: IC50”, the pIC50 was 4.92.

For `CC(C)c1cc(-c2ccc(F)cc2)c(OC[C@@H](O)C[C@@H](O)CC(=O)NCCCO[C@H]2CC[C@@]3(C)[C@@H](C2)C[C@@H](O)[C@@H]2[C@@H]3C[C@H](O)[C@]3(C)[C@@H]([C@H](C)CCC(=O)O)CC[C@@H]23)c(C(C)C)c1` [Example 82 (Na salt)], the IC25 is 17 µM and the IC75 stood at 80 µM. For the same compound, the pIC50 (read-out: IC50) is 4.32.

Consider `C[C@H](CCC(=O)O)[C@H]1CC[C@H]2[C@@H]3[C@H](O)C[C@@H]4C[C@@H](OCCNC(=O)[C@@H](C)NC(=O)[C@@H](C)N)CC[C@]4(C)[C@H]3C[C@H](O)[C@]12C` [Example 121, H-D-Ala-D-Ala-NH--(CH2)2 --GS--OH], for which the 25% effect level (IC25) was put at 30 µM and the IC75 stood at 172 µM. In addition, the negative logarithm of the IC50 (pIC50) (read-out: IC50) is 4.08.

`CC(C)c1nc(-c2ccccc2)cc(-c2ccc(F)cc2)c1/C=C/[C@@H](O)C[C@@H](O)CC(=O)NCCO[C@H]1CC[C@@]2(C)[C@@H](C1)C[C@@H](O)[C@@H]1[C@@H]2C[C@H](O)[C@]2(C)[C@@H]([C@H](C)CCC(=O)NCC(=O)O)CC[C@@H]12` [Example 105]: the 25% effect concentration (IC25) was determined as 11 µM and the IC75 is 45 µM. In addition, the pIC50 (read-out: IC50) was 4.65.
